Measured values reported in publication PMC11645656, “MRGPRX4 mediates phospho-drug associated pruritus in a humanized mouse model” (Science translational medicine, 2024).
“And” between values parts separate entries of the source, which are not always exact repeats. Equal entries are not always repeated.

What was measured:
Format in all cases: cell-based
MRGPRX4 WT (S83) [1] = target: T1, MRGPRX4 WT (S83) (Homo sapiens, UniProt Q96LA9, L83S); assay: Calcium mobilization assay (FLIPR), WT (S83) MRGPRX4 transiently expressed in HEK293T cells; set-up: expressed in transfected cells; host or cells: HEK293T, transient; conditions: for fig. S8 response (normalized), concentration-response: WT, single replicate
Text: (§1) Fig. 4. […] Hydrogen bond is shown as cyan dashed lines. […] Data are from three independent experiments, performed in triplicate. (E) pEC50 plots of various agonists toward S83- and L83-MRGPRX4 through calcium mobilization assay. […] Each data point represents an independent experiment, performed in triplicate. The extra sum-of-square F test was used to examine the difference in EC50 values. One-sided t-test was used for nateglinide. *p< 0.05, **p< 0.01 and ***p< 0.001. ns = no statistical significance. Both (D) and (E) are reported as the mean ± SEM. N.D.= no detectable response ≤ 100 μM.
(§2) HEK293 cells and MRGPRX4 stably expressed HEK293 cells were seeded in 100 μl culture media on 96-well plates at a density of 40,000 cells per well and incubated overnight. The next day, the media were replaced with a dye-loading solution from the FLIPR Calcium 5 assay kit (Molecular Devices), diluted in Hank's Balanced Salt Solution (HBSS) with 20 mM HEPES, pH 7.4. After 1 h of incubation at 37°C, cells were allowed to recover for 10 min in the dark at room temperature prior to performing intracellular calcium mobilization assay in a Flexstation-3 instrument with SoftMax®Pro 7.1 software (Molecular Devices). Serial concentrations of tested drugs were prepared in HBSS/HEPES solution at 3X concentration. […] Compounds were tested in triplicates and the signals were averaged. Responses were determined by subtracting the minimum signal (at the baseline before adding the drug) from the maximum signal (obtained after drug stimulation). Four-parameter logistic (4PL) curve fit was used to plot the dose-response curves. […] Both dose-response curve fitting and EC50s calculation are computed with GraphPad Prism software (version: 6.o or above).
(§3) To generate murine Mrgprs expressing cells, HEK293T cells (ATCC) were seeded on poly-D-lysine coated 96 well plate at 25,000 cells per well one day prior to transfection. HEK293T cells were transiently co-transfected with the mammalian expression plasmids carrying cDNA encoding the murine Mrgpr genes and plasmid inserted with cDNA encoding murine α-subunit of the heterotrimeric G15 protein (Gα15) in triplicates using Lipofectamine LTX reagents (Thermo Scientific). To generate WT, S83L, and alanine mutant MRGPRX4-expressing cells, HEK293T cells were seeded on poly-D-lysine coated 384 well plate at 12,000 cells per well one day prior to transfection. Mammalian expression plasmids pLX304 (vector from Addgene) carrying different MRGPRX4 coding sequences were transiently transfected into HEK293T cells in triplicates with Lipofectamine LTX reagents (Thermo Scientific). Intracellular calcium mobilization assays were performed after one day of transfection. Murine Mrgprs tested include Mrgpra1, Mrgpra2a, Mrgpra2b, Mrgpra3, Mrgpra4, Mrgpra6, Mrgpra9, Mrgpra10, Mrgpra11, Mrgpra12, Mrgpra14, Mrgprb5, Mrgprb6, Mrgprb10, Mrgprb11, and Mrgprc11. WT and mutant MRGPRX4 constructs tested include WT, S83L, R82A, R86A, R95A, W158A, Y250A, and Y254A.

MRGPRX4 S83L (L83) = MRGPRX4 S83L (L83) (Homo sapiens, UniProt Q96LA9); assay: Calcium mobilization assay (FLIPR), S83L MRGPRX4 transiently expressed in HEK293T cells; set-up: expressed in transfected cells; host or cells: HEK293T, transient; conditions: 2e-5 M, single replicate
Text: as §1, §2, §3

MRGPRX4 WT (S83) [2] = target: T1, MRGPRX4 WT (S83); assay: PRESTO-Tango β-arrestin recruitment assay, HTLA cells stably expressing WT (S83) MRGPRX4; set-up: expressed in transfected cells; conditions: HTLA::MRGPRX4
Procedure: HTLA cells, a cell line derived from HEK293 and engineered to stably express a tTA-dependent luciferase reporter and a β-arrestin2-TEV fusion gene, were generously provided by Richard Axel's laboratory. HTLA cells were cultured in growth medium containing 2 μg/ml puromycin and 100 μg/ml hygromycin B in 5% CO2 at 37 °C. Stably MRGPRX4-expressing HTLA cells were generated by transfecting pcDNA3.1(+)-Zeo containing MRGPRX4-Tango construct (either with WT or S83L mutant sequence) into HTLA cells with Lipofectamine 3000 and selecting the successful transfected clones with Zeocin.
HTLA cells stably expressing either WT or S83L MRGPRX4 were seeded in PDL-coated 96-well white clear bottom cell culture plates with DMEM containing 10% FBS, at a density of 35,000 cells per well and were allowed to attach to the bottom of the wells overnight. The next day, growth medium was replaced with 100 μl of serum-free medium containing the tested drugs at various concentrations, and the cells were then incubated at 37°C for 24 h. On the following day, media with drug solutions was removed and 50 μl per well of Bright-Glo™ Reagent from Bright-Glo™ Luciferase Assay System (Promega) was loaded. The plate was incubated at room temperature in the dark for 5 min, and the relative luminescence units were measured using the Flexstation-3 instrument with SoftMax®Pro 7.1 software (Molecular Devices). Dose response curves and EC50s were analyzed as described above.
Data are from at least two independent experiments, each performed in
triplicate, and are depicted as mean ± SEM.
arrestin2-TEV fusion gene and a tTA -dependent luciferase reporter.

MRGPRX4 (S83) = target: T2, MRGPRX4 (S83) (Homo sapiens, UniProt Q96LA9, L83S); assay: EC50 determination, intracellular calcium mobilization in MRGPRX4 stably expressed HEK293 cells (FLIPR Calcium 5, Flexstation-3); conditions: propofol series, individual replicate values
T2 construct: expressed in transfected cells
Method in brief: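 HEK293 cells stably expressing receptor (parental HEK293 alongside) loaded with Calcium 5 dye in HBSS/20 mM HEPES, pH 7.4, 1 h at 37 °C, then compounds added. Response = peak minus pre-drug baseline, triplicates averaged; EC50 from 4PL fit.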

HTLA cells = assay: PRESTO-Tango β-arrestin recruitment assay, parental HTLA cells without MRGPRX4 (control, fig. S1)
Text: Supplement NIHMS2038790-supplement-table.xlsx, sheet "fig. S1" | column: Concentration (M)

T1 sequence (Q96LA9 whole entry L83S): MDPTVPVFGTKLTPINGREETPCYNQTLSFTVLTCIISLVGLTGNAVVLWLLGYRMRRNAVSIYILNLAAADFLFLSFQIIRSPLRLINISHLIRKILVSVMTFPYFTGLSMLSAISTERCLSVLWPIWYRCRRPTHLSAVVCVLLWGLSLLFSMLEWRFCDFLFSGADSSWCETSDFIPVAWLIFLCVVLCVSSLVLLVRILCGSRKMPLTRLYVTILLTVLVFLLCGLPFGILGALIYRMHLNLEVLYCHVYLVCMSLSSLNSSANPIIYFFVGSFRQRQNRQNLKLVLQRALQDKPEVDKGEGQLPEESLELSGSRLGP
T2 sequence (Q96LA9 whole entry L83S): as above
Sequence of MRGPRX4 S83L (L83) (Q96LA9 whole entry, stated change not applied): as the sequence (Q96LA9 whole entry L83S) above, with S83L counted along it

## C[C@H](CCC(=O)O)[C@H]1CC[C@H]2[C@@H]3CC[C@@H]4C[C@H](O)CC[C@]4(C)[C@H]3C[C@H](O)[C@]12C [Deoxycholic Acid]
MRGPRX4 WT (S83) [1]; 1.95e-8 M
  fig. S8 response (normalized), concentration-response: 6.035
MRGPRX4 WT (S83) [1]; 3.91e-8 M
  fig. S8 response (normalized), concentration-response: 8.843
MRGPRX4 WT (S83) [1]; calcium mobilization, compared with S83L (A17)
  Potency at S83- vs L83-MRGPRX4: equal potency
MRGPRX4 S83L (L83)
  fig. S8 response (normalized), concentration-response: 87.5629

## CC(C)c1cccc(C(C)C)c1O [Propofol]
MRGPRX4 WT (S83) [2]; concentration 9.77e-7 M
  PRESTO-Tango response (fig. S1), single replicate: 0.1179 and 0.1434 and 0.1128 and 0.0576 and 0.1584 and 0.1581 and 0.09558 and 0.2113 and 0.06727
MRGPRX4 WT (S83) [2]; concentration 1.95e-6 M
  PRESTO-Tango response (fig. S1), single replicate: 0.1108 and 0.0929 and 0.1168 and 0.004899 and 0.1204 and 0.1953 and 0.1172 and 0.1059 and 0.09744
MRGPRX4 WT (S83) [2]; concentration 3.91e-6 M
  PRESTO-Tango response (fig. S1), single replicate: 0.09107 and 0.1491 and 0.1505 and 0.154 and 0.1534 and 0.08321 and 0.05164 and 0.03127 and 0.3077
MRGPRX4 WT (S83) [2]; concentration 7.81e-6 M
  PRESTO-Tango response (fig. S1), single replicate: 0.1035 and 0.1156 and 0.1105 and 0.05878 and 0.1844 and 0.08643 and 0.09982 and 0.0447 and 0.1851
MRGPRX4 WT (S83) [2]; concentration 1.56e-5 M
  PRESTO-Tango response (fig. S1), single replicate: 0.1135 and 0.116 and 0.1027 and 0.1824 and 0.02561 and 0.1241 and 0.06605 and 0.09721 and 0.1689
MRGPRX4 WT (S83) [2]; concentration 3.13e-5 M
  PRESTO-Tango response (fig. S1), single replicate: 0.1268 and 0.1068 and 0.1143 and 0.2727 and 0.04775 and 0.02749 and 0.1181 and 0.1469 and 0.08291
MRGPRX4 WT (S83) [2]; concentration 6.25e-5 M
  PRESTO-Tango response (fig. S1), single replicate: 0.1552 and 0.07997 and 0.0929 and 0.03397 and 0.1353 and 0.1588 and 0.2302 and 0.01074 and 0.08707
MRGPRX4 WT (S83) [2]; concentration 0.00025 M
  PRESTO-Tango response (fig. S1), single replicate: 0.109 and 0.07615 and 0.1012 and 0.1462 and 0.1013 and 0.03885 and 0.188 and 0.002674 and 0.09569
MRGPRX4 WT (S83) [2]; concentration 0.0005 M
  PRESTO-Tango response (fig. S1), single replicate: 0.06978 and 0.08316 and 0.1048 and 0.1033 and 0.11 and 0.04438 and 0.05461 and 0.1469 and 0.05616
MRGPRX4 WT (S83) [2]; concentration 0.001 M
  PRESTO-Tango response (fig. S1), single replicate: 0.07852 and 0.088 and 0.0856 and 0.07264 and 0.06166 and 0.1178 and 0.08358 and 0.132 and 0.03659
MRGPRX4 (S83); 9.76563e-7 M
  Fig. 1D dose-response, calcium response at Concentration (M): 0.414 and 3.255 and 2.599 and 1.616 and 1.795 and 1.237 and 1.276 and 3.496 and 2.341
MRGPRX4 (S83); 1.95313e-6 M
  Fig. 1D dose-response, calcium response at Concentration (M): 1.458 and 0.513 and 0.300 and 1.914 and 1.276 and 2.203 and 3.251 and -1.964 and 1.519
MRGPRX4 (S83); 3.90625e-6 M
  Fig. 1D dose-response, calcium response at Concentration (M): 5.819 and 7.751 and 4.466 and 7.090 and 4.830 and 4.639 and 13.006 and -1.259 and 2.816
MRGPRX4 (S83); 7.8125e-6 M
  Fig. 1D dose-response, calcium response at Concentration (M): 1.962 and 0.130 and 1.580 and 1.041 and 3.162 and 0.591 and -0.388 and 5.581 and 3.691
MRGPRX4 (S83); 1.5625e-5 M
  Fig. 1D dose-response, calcium response at Concentration (M): 1.132 and 9.188 and 9.688 and 3.963 and 8.123 and 8.863 and 0.133 and 12.778 and 11.454
MRGPRX4 (S83); 3.125e-5 M
  Fig. 1D dose-response, calcium response at Concentration (M): 25.991 and 46.958 and 31.996 and 27.619 and 18.338 and 28.954 and 31.875 and 17.124 and 5.004
MRGPRX4 (S83); 6.25e-5 M
  Fig. 1D dose-response, calcium response at Concentration (M): 7.246 and 18.605 and 32.559 and 31.367 and 1.645 and 36.351 and 11.712 and 17.508 and 39.720
MRGPRX4 (S83); 0.00025 M
  Fig. 1D dose-response, calcium response at Concentration (M): 30.626 and 14.912 and 5.366 and 49.034 and 15.438 and 25.512 and 22.768 and 21.559 and 24.302
MRGPRX4 (S83); 0.0005 M
  Fig. 1D dose-response, calcium response at Concentration (M): 10.617 and 40.711 and 21.943 and 10.261 and 44.385 and 12.114 and 18.721 and 45.754 and 25.261
MRGPRX4 (S83); 0.001 M
  Fig. 1D dose-response, calcium response at Concentration (M): 34.500 and 40.615 and 40.058 and 10.462 and 33.199 and 24.127 and 20.241 and 39.351 and 8.604
HTLA cells; concentration 9.77e-7 M
  PRESTO-Tango response (fig. S1), single replicate: 0.002641 and 0.003228 and 0.001921 and 0.003818 and 0.005628 and 0.002399 and 0.002922 and 0.00482 and 0.001506
HTLA cells; concentration 1.95e-6 M
  PRESTO-Tango response (fig. S1), single replicate: 0.01304 and 0.00742 and 0.001861 and 0.009318 and 0.007315 and 0.005392 and 0.006104 and 0.000476 and 0.005086
HTLA cells; concentration 3.91e-6 M
  PRESTO-Tango response (fig. S1), single replicate: 0.0059 and 0.008908 and 0.007295 and 0.003528 and 0.003903 and 0.003563 and 0.006271 and 0.01085 and 0.002976
HTLA cells; concentration 7.81e-6 M
  PRESTO-Tango response (fig. S1), single replicate: 0.01035 and 0.005294 and 0.00767 and 0.001374 and 0.003682 and 0.00304 and 0.005677 and 0.00324 and 0.000748
HTLA cells; concentration 1.56e-5 M
  PRESTO-Tango response (fig. S1), single replicate: 0.005663 and 0.003492 and 0.001779 and 0.006047 and 0.000809 and 0.001829 and 0.006081 and 0.002266 and 0.003388
HTLA cells; concentration 3.13e-5 M
  PRESTO-Tango response (fig. S1), single replicate: 0.005015 and 0.001994 and 0.006447 and 0.00774 and 0.01014 and 0.004442 and 0.006627 and 0.005281 and 0.005885
HTLA cells; concentration 6.25e-5 M
  PRESTO-Tango response (fig. S1), single replicate: 0.00323 and 0.00222 and 0.005079 and 0.001882 and 0.000357 and 0.003112 and 0.002446 and 0.001662 and 0.004291
HTLA cells; concentration 0.00025 M
  PRESTO-Tango response (fig. S1), single replicate: 0.00362 and 0.004413 and 0.002642 and 0.006045 and 0.000923 and 0.008313 and 0.004252 and 0.005811 and 0.003669
HTLA cells; concentration 0.0005 M
  PRESTO-Tango response (fig. S1), single replicate: 0.004877 and 0.00565 and 0.005098 and 0.004157 and 0.003595 and 0.001306 and 0.008836 and 0.005548 and 0.00448
HTLA cells; concentration 0.001 M
  PRESTO-Tango response (fig. S1), single replicate: 0.000524 and 0.002159 and 0.001733 and 0.007522 and 0.000243 and 0.003444 and 0.004679 and 0.004321 and 0.006568
